Experimental data from patent publication US7834030B2, “Phenyl-[1,2,4]-oxadiazol-5-one derivatives, pharmaceutical compositions and therapeutic use thereof” (Sanofi-Aventis, priority 2005, dated 2010).
pEC50: −log10 of the molar value.

Each compound was assayed against T1, human PPARdelta (Homo sapiens, UniProt Q03181) (assay: cellular PPARdelta assay (GAL4 luciferase reporter, stably transfected HEK cell line)).
T1 construct: human PPARdelta receptor (amino acids S139-Y441); expressed in transfected cells; plasmid pcDNA3
T1 sequence (Q03181 139-441): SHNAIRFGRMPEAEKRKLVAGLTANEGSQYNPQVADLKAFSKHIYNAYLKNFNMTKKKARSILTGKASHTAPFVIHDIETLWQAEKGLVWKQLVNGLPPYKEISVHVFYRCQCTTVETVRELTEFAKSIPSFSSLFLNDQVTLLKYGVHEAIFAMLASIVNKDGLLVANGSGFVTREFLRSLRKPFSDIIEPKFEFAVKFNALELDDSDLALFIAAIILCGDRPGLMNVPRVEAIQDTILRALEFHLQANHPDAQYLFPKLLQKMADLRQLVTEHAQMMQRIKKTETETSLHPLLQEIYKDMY
Format: cell-based
Experimental: The PPARalpha reporter cell line is cultivated to 80% confluence in DMEM (# 41965-039, Invitrogen) which is mixed with the following additions: 10% cs-FCS (fetal calf serum; #SH-30068.03, Hyclone), 0.5 mg/ml zeocin (#R250-01, Invitrogen), 0.5 mg/ml G418 (#10136-027, Invitrogen), 1% penicillin-streptomycin solution (#15140-122, Invitrogen) and 2 mM L-glutamine (#25030-024, Invitrogen). The cultivation takes place in standard cell culture bottles (# 353612, Becton Dickinson) in a cell culture incubator at 37° C. in the presence of 5% CO2. The 80%-confluent cells are washed once with 15 ml of PBS (#14190-094, Invitrogen), treated with 3 ml of trypsin solution (#25300-054, Invitrogen) at 37° C. for 2 min, taken up in 5 ml of the DMEM described and counted in a cell counter. After dilution to 500.000 cells/ml, 35,000 cells are seeded in each well of a 96 well microtiter plate with a clear plastic base (#3610, Corning Costar). The plates are incubated in the cell culture incubator at 37° C. and 5% CO2 for 24 h.
PPARalpha agonists to be tested are dissolved in DMSO in a concentration of 10 mM. This stock solution is diluted in DMEM (#41965-039, Invitrogen) which is mixed with 5% cs-FCS (#SH-30068.03, Hyclone), 2 mM L-glutamine (#25030-024, Invitrogen) and the previously described antibiotics (zeocin, G418, penicillin and streptomycin). Test substances are tested in 11 different concentrations in the range from 10 μM to 100 pM.
The medium of the PPARalpha reporter cell line seeded on day 1 is completely removed by aspiration, and the test substances diluted in medium are immediately added to the cells. The dilution and addition of the substances is carried out by a robot (Beckman FX). The final volume of the test substances diluted in medium is 100 μl per well of a 96 well microtiter plate. The DMSO concentration in the assay is less than 0.1% v/v in order to avoid cytotoxic effects of the solvent.
The PPARalpha reporter cells treated with the test substances are removed from the incubator, and the medium is aspirated off. The cells are lyzed by pipetting 50 μl of Bright Glo reagent (from Promega) into each well of a 96 well microtiter plate. After incubation at room temperature in the dark for 10 minutes, the microtiter plates are measured in the luminometer (Trilux from Wallac). The measuring time for each well of a microtiter plate is 1 sec.
The raw data from the luminometer are transferred into a Microsoft Excel file. Dose-effect plots and EC50 values of PPAR agonists are calculated using the XL.Fit program as specified by the manufacturer (IDBS). […] The compounds of the present invention of formula I activate the PPARalpha receptor.
The potency of substances which bind to human PPARdelta and activate it in an agonistic manner was analyzed using a stably transfected HEK cell line (HEK=human embryo kidney) which is referred to here as PPARdelta reporter cell line. In analogy to the assay described for PPARalpha, the PPARdelta reporter cell line also contains two genetic elements, a luciferase reporter element (pdeltaM-GAL4-Luc-Zeo) and a PPARdelta fusion protein (GR-GAL4-humanPPARdelta-LBD) which mediates expression of the luciferase reporter element depending on a PPARdelta ligand. The stably and constitutively expressed fusion protein GR-GAL4-humanPPARdelta-LBD binds in the cell nucleus of the PPARdelta reporter cell line via the GAL4 protein portion to the GAL4 DNA binding motifs 5′-upstream of the luciferase reporter element which is stably integrated in the genome of the cell line. There is only little expression of the luciferase reporter gene in the absence of a PPARdelta ligand if fatty acid-depleted fetal calf serum (cs-FCS) is used in the assay. PPARdelta ligands bind and activate the PPARdelta fusion protein and thereby stimulate expression of the luciferase reporter gene. The luciferase which is formed can be detected by means of chemiluminescence via an appropriate substrate. […]

pEC50 | Structure (SMILES)
9.00 | Cc1nc(-c2ccc(C(F)(F)F)cc2)sc1C(Oc1ccc(-c2noc(=O)[nH]2)c(Cl)c1)C(F)(F)F (racemic) [Example 20, 3-(2-Chloro-4-{2,2,2-trifluoro-1-[4-methyl-2-(4-trifluoromethyl-phenyl)-thiazol-5-yl]-ethoxy}-phenyl)-4H-[1,2,4]oxadiazol-5-one]
9.00 | CCC(Oc1ccc(-c2noc(=O)[nH]2)c(C2CC2)c1)c1sc(-c2ccc(C(F)(F)F)cc2)nc1C (racemic) [Example 16, 3-(2-Cyclopropyl-4-{1-[4-methyl-2-(4-trifluoromethyl-Phenyl)-thiazol-5-yl]-propoxy}-phenyl)-4H-[1,2,4]oxadiazol-5-one]
9.00 | CC[C@@H](Oc1cc(OC)c(-c2noc(=O)[nH]2)cc1F)c1sc(-c2ccc(C(F)(F)F)cc2)nc1C [(+)-40, (+)-3-(5-Fluoro-2-methoxy-4-{(R)-1-[4-methyl-2-(4-trifluoromethyl-phenyl)-thiazol-5-yl]-propoxy}-phenyl)-4H-1,2,4-oxadiazol-5-one]
9.30 | CCC(Oc1ccc(-c2noc(=O)[nH]2)c(OC(F)F)c1)c1sc(-c2ccc(C(F)(F)F)cc2)nc1C (racemic) [Example 37, 3-(2-Difluoromethoxy-4-{1-[4-methyl-2-(4-trifluoromethyl-phenyl)-thiazol-5-yl]-propoxy}-phenyl)-4H-1,2,4-oxadiazol-5-one]
6.90 | Cc1nc(-c2ccc(C(F)(F)F)cc2)sc1C(OCc1ccc(-c2noc(=O)[nH]2)cc1)C(F)(F)C1CC1 (racemic) [Example 32, 3-(4-{2-Cyclopropyl-2,2-difluoro-1-[4-methyl-2-(4-trifluoromethyl-phenyl)-thiazol-5-yl]-ethoxymethyl}-phenyl)-4H-[1,2,4]oxadiazol-5-one]
9.00 | CCCCC(Cc1ccc(-c2noc(=O)[nH]2)c(F)c1)c1sc(-c2ccc(C(F)(F)F)cc2)nc1C (racemic) [Example 34, 3-(2-Fluoro-4-{2-[4-methyl-2-(4-trifluoromethyl-phenyl)-thiazol-5-yl]-hexyl}-phenyl)-4H-[1,2,4]oxadiazol-5-one]
9.52 | CC[C@@H](Oc1ccc(-c2noc(=O)[nH]2)c(OC(F)F)c1)c1sc(-c2ccc(C(F)(F)F)cc2)nc1CN1CCC(C(F)(F)F)CC1 [(+)-45, (+)-3-(2-Difluoromethoxy-4-{(R)-1-[2-(4-trifluoromethyl-phenyl)-4-(4-trifluoromethyl-piperidin-1-ylmethyl)-thiazol-5-yl]-propoxy}-phenyl)-4H-1,2,4-oxadiazol-5-one]
9.00 | CCC(Oc1ccc(-c2noc(=O)[nH]2)c(OCC(F)(F)F)c1)c1sc(-c2ccc(C(F)(F)F)cc2)nc1C (racemic) [Example 48, 3-[4-{1-[4-Methyl-2-(4-trifluoromethyl-phenyl)-thiazol-5-yl]-propoxy}-2-(2,2,2-trifluoro-ethoxy)-phenyl]-4H-1,2,4-oxadiazol-5-one]
8.40 | CCC(Oc1ccc(-c2noc(=O)[nH]2)c(F)c1)c1sc(-c2ccc(C(F)(F)F)cc2)nc1C (racemic) [Example 35, 3-(2-Fluoro-4-{1-[4-methyl-2-(4-trifluoromethyl-phenyl)-thiazol-5-yl]-propoxy}-phenyl)-4H-1,2,4-oxadiazol-5-one]
8.10 | CCC(Oc1ccc(-c2noc(=O)[nH]2)c(OC)c1)c1sc(-c2ccc(C(F)(F)F)cc2)nc1CN1CCC(C(F)(F)F)CC1 (racemic) [Example 42, 3-(2-Methoxy-4-{1-[2-(4-trifluoromethyl-phenyl)-4-(4-trifluoromethyl-piperidin-1-ylmethyl)-thiazol-5-yl]-propoxy}-phenyl)-4H-1,2,4-oxadiazol-5-one]
8.52 | Cc1nc(-c2ccc(C(F)(F)F)cc2)sc1C(OCc1ccc(-c2noc(=O)[nH]2)c2cccnc12)C(F)(F)F (racemic) [Example 25, 3-(8-{2,2,2-Trifluoro-1-[4-methyl-2-(4-trifluoromethyl-phenyl)-thiazol-5-yl]-ethoxymethyl}-quinolin-5-yl)-4H-[1,2,4]oxadiazol-5-one]
9.70 | CCC(Oc1ccc(-c2noc(=O)[nH]2)c(Cl)c1)c1sc(-c2ccc(C(F)(F)F)cc2)nc1C (racemic) [Example 4, 3-(2-Chloro-4-{1-[4-methyl-2-(4-trifluoromethyl-phenyl)-thiazol-5-yl]-propoxy}-phenyl)-4H-[1,2,4]oxadiazol-5-one]
7.77 | Cc1nc(-c2ccc(C(F)(F)F)cc2)sc1C(OCc1ccc(-c2noc(=O)[nH]2)c(F)c1)C(F)(F)F (racemic) [Example 22, 3-(2-Fluoro-4-{2,2,2-trifluoro-1-[4-methyl-2-(4-trifluoromethyl-phenyl)-thiazol-5-yl]-ethoxymethyl}-phenyl)-4H-[1,2,4]oxadiazol-5-one]
7.77 | Cc1nc(-c2ccc(C(F)(F)F)cc2)sc1C(OCc1ccc(-c2noc(=O)[nH]2)c(Cl)n1)C(F)(F)F (racemic) [Example 27, 3-(2-Chloro-6-{2,2,2-trifluoro-1-[4-methyl-2-(4-trifluoromethyl-phenyl)-thiazol-5-yl]-ethoxymethyl}-pyridin-3-yl)-4H-[1,2,4]oxadiazol-5-one]
8.22 | Cc1nc(-c2ccc(C(F)(F)F)cc2)sc1C(Cc1ccccn1)Oc1ccc(-c2noc(=O)[nH]2)c(Cl)c1 (racemic) [Example 10, 3-(2-Chloro-4-{1-[4-methyl-2-(4-trifluoromethyl-phenyl)-thiazol-5-yl]-2-pyridin-2-yl-ethoxy}-phenyl)-4H-[1,2,4]oxadiazol-5-one]
